# Laboratory results reported in patent US20090017103A1, “Antisense oligonucleotides for prevention of metastasis formation of cancer cells” (priority 2003, published 2009).
# Marks after values point to notes of the source that are not given here.
# What was measured:
# Format in all cases: cell-based, human
# osteonectin = assay: Western blot of osteonectin expression after exposure to ASOs; settings: for osteonectin expression in relation to untreated control (100%): single exposure, lipofectamine, 10 μM
# bone sialoprotein II = assay: Western blot of bone sialoprotein II expression after exposure to ASOs; settings: 10 μM
# [1] = test system: MDA-MB-231 breast cancer cells; assay: Clonogenicity assay (colony formation); settings: for inhibition of colony formation (colony growth inhibition): single exposure
# Experimental: For determining the response of MDA-MB-231 colony formation to exposure with antisense oligonucleotides and erucylphospho-NNN-trimethylpropanolamine (ErPC3) the following procedure was used. MDA-MB-231 cells were treated for various periods of time (see below), harvested and counted. Cells (5000) were then transferred into semi-solid medium containing 0.8t RPMI-methylcellulose and 30% FBS. Cells were plated onto 3.5 cm Petri-dishes (1 ml/dish) (NUNC, Wiesbaden, Germany) and usual cell culture conditions (37° C., 5% CO2 in humidified air) were applied. Colony formation (clusters of 30 or more cells) was visualized by staining with 3-[4,5-dimethylthiazol-2-yl]-2,5-diphenyltetrazolium-bromide (MTT; Serva, Heidelberg, Germany) and the resulting dark blue colonies were scored by an inverted microscope after 5-7 days. At least three dishes per treatment protocol were used.
# Pending on the duration of treatment, 1×10^5-3×10^5 cells were transferred onto 6 well plates (Nunc, Wiesbaden, Germany) and grown for 24 h. For transfection, ASO stock solutions were prepared in medium without FBS. According to the protocol of the manufacturer, the respective ASO stock solution was mixed with lipofectamine to allow ASO-liposome complexes to form. To 200 μl medium containing ASO quantities resulting in 10 μM (Western blot and in vivo model) and in 5, 10, or 20 μM (clonogenicity assay) final ASO-concentrations, an equal volume of medium without FBS was added containing 5, 10, or 20 μl lipofectamine, respectively. In addition to the ASO treatment, a NSO control (20 μM final concentration with 20 μl lipofectamine) and a lipofectamine control (20 μl) were used. […] After 12 h the medium was changed, and cells were further grown for 48-72 h. In the case of a sequential combination treatment this first cycle was repeated with the respective combination partner.
# The alkylphosphocholine ErPC3 was synthesized and provided by Prof. H. Eibl (MPI of Biophysical Chemistry, Göttingen, FRG). For treating MDA-MB-231 cells, ErPC3 which was kept as stock solution in ethanol and PBS (10 mM; ratio of diluents 1:1; V:V), was diluted in PBS resulting in final concentrations of 10, 14, and 20 μM. The medium containing ErPC3 was changed after 24 h in all experiments and the cells were further grown for 48-72 h without ErPC3 (for details of sequential exposure see below).
# Sequential combination treatment consisted of two or three treatment cycles. The two cycle treatment started either with the ASO and was followed by ErPC3 or was performed with the reverse sequence. The three cycle treatment started either with two cycles of ASO followed by ErPC3 or an initial exposure to ErPC3 was followed by two cycles with an ASO.
# Colony counts are presented as mean with corresponding standard deviation. For comparison of incidences between treatment groups the x^2 test was used and for comparison of the lesion sizes the Kruskal-Wallis test was applied. P values≦0.05 were considered significant. Predicted theoretical values of combinations were calculated according to the equation: C=a×b/100, where a and b are colony counts in percent of untreated control obtained in response to single agents. For each concentration applied theoretical values were calculated and compared with the real value of the combination. In addition, isobologram and multiple drug effect analysis was examined by a suitable program (CalcuSyn, Biosoft, Ferguson, USA) to study the nature of the interaction observed. For this purpose, the dose-effect curve for each drug alone was determined based on the experimental observations using the median-effect principle; the combination index (CI) for each combination was then calculated according to the following equation:
# CI=(D)1/(Dx)1+(D)2/(Dx)2+(D1)×(D2)/(Dx)1×(Dx)2
# where (D)1 and (D)2 are the doses of drug 1 and drug 2 that have x effect when used in combination and (Dx)1 and (Dx)2 are the doses of drug 1 and drug 2 that have the same x effect when used alone. […]
# [2] = MDA-MB231^F (growing without FBS)
# [3] = MDA-MB231, single exposure, electroporation
# [4] = MDA-MB231, single exposure, lipofectamine
# [5] = MDA-MB231^F (growing without FBS), single exposure, lipofectamine
# [6] = MDA-MB435s, single exposure, lipofectamine
# [7] = MDA-MB231, twofold exposure, lipofectamine
Molecule,osteonectin expression in relation to untreated control (100%) (osteonectin; MDA-MB231),osteonectin expression in relation to untreated control (100%) (osteonectin; [2]) [%],osteonectin expression in relation to untreated control (100%) (osteonectin; MDA-MB435s) [%],bone sialoprotein II expression in relation to untreated control (100%) (bone sialoprotein II; [3]) [%],bone sialoprotein II expression in relation to untreated control (100%) (bone sialoprotein II; [4]) [%],bone sialoprotein II expression in relation to untreated control (100%) (bone sialoprotein II; [5]) [%],bone sialoprotein II expression in relation to untreated control (100%) (bone sialoprotein II; [6]) [%],other results
"5′- TGTACTTGTCATTGTCCAGG-3′ (antisense TGTACTTGTCATTGTCCAGG; all phosphorothioate, sugars by position and methylation of C not given here) [ASO-ON-7]",50%,32,64,–,–,–,–,–
"5′-ACTGGTGGTGGTAGTAATTC-3′ (antisense ACTGGTGGTGGTAGTAATTC; all phosphorothioate, sugars by position and methylation of C not given here) [ASO-BSPII-9]",–,–,–,46,35,84,49,–
"5′-AGATCCAGGCCCTCATGGTG -3′ (antisense AGATCCAGGCCCTCATGGTG; all phosphorothioate, sugars by position and methylation of C not given here) [ASO-ON-1]",39^3) %,44,46,–,–,–,–,–
"5′-AGGTCACAGGTCTCGAAAAA-3′ (antisense AGGTCACAGGTCTCGAAAAA; all phosphorothioate, sugars by position and methylation of C not given here) [ASO-ON-6]",52%,44,56,–,–,–,–,–
"5′-ATGCGCAGGGGGAATTCGGT (antisense ATGCGCAGGGGGAATTCGGT; all phosphorothioate, sugars by position and methylation of C not given here) [ASO-ON-4]",50%,31,62,–,–,–,–,–
5′-ATGTTATAGTTCTTCTCGAA-3′ [ASO-ON-5],30%,22,27,–,–,–,–,decrease of osteonectin (osteonectin; MDA-MB-231 cells): 70%
"5′-ATTCTTCATTGTTTTCTCCT-3 (antisense ATTCTTCATTGTTTTCTCCT; all phosphorothioate, sugars by position and methylation of C not given here) [ASO-BSPII-4]",–,–,–,55,73,109,26,–
"5′-ATTTTGGTGATTGCTTCCTC-3′ (antisense ATTTTGGTGATTGCTTCCTC; all phosphorothioate, sugars by position and methylation of C not given here) [ASO-BSPII-2]",–,–,–,94,38,94,26,–
"5′-CTGCCTTCCGGTCTCTGTGG-3′ (antisense CTGCCTTCCGGTCTCTGTGG; all phosphorothioate, sugars by position and methylation of C not given here) [ASO-BSPII-8]",–,–,–,34,62,101,32,bone sialoprotein II expression in relation to untreated control (100%) (bone sialoprotein II; [7]): 25%
"5′-CTTCATCACTTTCCTTCTCT-3′ (antisense CTTCATCACTTTCCTTCTCT; all phosphorothioate, sugars by position and methylation of C not given here) [ASO-BSPII-5]",–,–,–,63,27,101,41,bone sialoprotein II expression in relation to untreated control (100%) (bone sialoprotein II; [7]): 46%
"5′-CTTCATTGTTTTCTCCTTCA-3′ (antisense CTTCATTGTTTTCTCCTTCA; all phosphorothioate, sugars by position and methylation of C not given here) [ASO-BSPII-3]",–,–,–,44,97,93,22,–
"5′-TCACTGGTGGTGGTAGTAAT-3′ (antisense TCACTGGTGGTGGTAGTAAT; all phosphorothioate, sugars by position and methylation of C not given here) [ASO-BSPII-10]",–,–,–,40,33,30,39,–
"5′-TGATTGCTTCCTCTGGCAGT-3′ (antisense TGATTGCTTCCTCTGGCAGT; all phosphorothioate, sugars by position and methylation of C not given here) [ASO-BSPII-1]",–,–,–,78,45,58,16,bone sialoprotein II expression in relation to untreated control (100%) (bone sialoprotein II; [7]): 19^2) %
5′-TTCCGGTCTCTGTGGTGTCT-3′ [ASO-BSPII-7],–,–,–,25,58,37,51,bone sialoprotein II expression in relation to untreated control (100%) (bone sialoprotein II; [7]): 22%
"CCCCCCCC/C=C\CCCCCCCCCCCCOP(=O)([O-])OCCC[N+](C)(C)C [ErPC3, Erucylphospho-NNN-trimethylpropanolamine, reference compound]",–,–,–,–,–,–,–,"% Control ([1]; Exp. III a, 14 μM): 52%; Mean colony no. ([1]; Exp. III a, 14 μM, control 456): 239^5); % Control ([1]; Experiment I, single treatment, 10 μM): 89%; Mean colony no. ([1]; Experiment I, single treatment, 10 μM, control 778): 691^8); % Control ([1]; Experiment I, single treatment, 14 μM): 55%; Mean colony no. ([1]; Experiment I, single treatment, 14 μM, control 778): 425^7); % Control ([1]; Experiment I, single treatment, 20 μM): 22%; Mean colony no. ([1]; Experiment I, single treatment, 20 μM, control 778): 169; % Control ([1]; Experiment II, single treatment, 10 μM): 88%; Mean colony no. ([1]; Experiment II, single treatment, 10 μM, control 705): 621^8); % Control ([1]; Experiment II, single treatment, 14 μM): 55%; Mean colony no. ([1]; Experiment II, single treatment, 14 μM, control 705): 385^7); % Control ([1]; Experiment II, single treatment, 20 μM): 25%; Mean colony no. ([1]; Experiment II, single treatment, 20 μM, control 705): 173; % Control ([1]; Experiment III b, 14 μM): 59%; Mean colony no. ([1]; Experiment III b, 14 μM, control 517): 311^5); inhibition of colony formation (colony growth inhibition) ([1]; 10 μM): 11%; inhibition of colony formation (colony growth inhibition) ([1]; 14 μM): 45%; inhibition of colony formation (colony growth inhibition) ([1]; 20 μM): 78%"
